These results are taken from patent US20240270731A1, “[…]” (ALEBUND PHARMACEUTICALS (HONG KONG) LIMITED, priority 2021, published 2024).

Molecules are shown by their SMILES.

Data set [1] can be described thus: 7-day repeated oral gavage, body weights of ICR mice. It is filed as in vivo. The following applies: for Weight Gain compared with Day 0: n=10. The text has this: After 3 days of acclimatization, ICR mice were grouped according to their body weights. The day of grouping is designated as Day 0. […] The animals were weighed and recorded daily.
The subject of data set [2] is rat model of hyperlipidemia induced by high cholesterol diet. In words: Rat model of hyperlipidemia induced by high cholesterol diet (serum TG, NEFA). It is filed as in vivo, Sprague-Dawley rats. The following applies: for Serum TG / Serum NEFA: mean ± SD, n=6; for Serum TG and NEFA levels compared with the vehicle group: Day 8, both 0.2 mg/kg and 0.6 mg/kg. An excerpt:
On the day before the start of the administration (Day 0), the animals were divided into 7 groups based on body weights and serum indicators and were continually fed with the high-cholesterol diet. The treatment groups were orally dosed with either compound or vehicle while continuing the high-cholesterol diet for a total of 1 week. The animals were weighed daily before the treatment, and the compounds were given at 9:00-9:30 in the morning based on the body weight of the day.

Data set [3] has as its system rat model of unilateral ureteral obstruction. Nature of the data set: Renal injury in rat model of unilateral ureteral obstruction. The following applies: 0.2 mg/kg oral daily, 14 treatment days.
Procedure: Housing temperature was maintained at 20-26° C. and humidity at 40%-60%. Rats were fed with a standard chow and allowed to access food and water ad libitum.
The formulation was prepared twice a week.
Vehicle or compounds were administrated by orally gavage daily. Unilateral ureteral obstruction was performed on the second day of compound treatment. Animals in model group, reference group and compound group underwent urethral ligation under isoflurane anesthesia one hour after receiving compound administration. A flank incision was cut to expose the left ureter, and a 4-0 surgical suture was used to perform two-point ligation to achieve urethral obstruction. Ureter was cut between the two ligation points. Animals in the control group were subjected to the same surgical treatment except the ligation and cut.
Rats were sacrificed after 14 days' compound treatment. The obstructed kidney was weighed and collected for histology. The tissue samples were fixed with formalin, and then paraffin embedded. The embedded tissue was sectioned and stained with hematoxylin & eosin and Masson trichrome to assess kidney structure and fibrosis.
The multiple comparison was analyzed with the Kruskal-Wallis non-parameter test. The Dunn's test was used to compare the difference to the model group.
For data set [4], the system named is db/db type 2 diabetes model. Nature of the data set: Pharmacodynamics study on the db/db type 2 diabetes model. The following applies: for Serum TG levels compared with the vehicle group: Day 6 and Day 12, Compound 2 at different dosages; for Statistical difference (p) of the blood glucose level between OGTT treatment group and vehicle group: 0.2 mpk.
Source text: 45 db/db mice were evenly divided into 5 groups before the initiation of treatment based on the body weights, serum triglyceride (TG) levels, and random blood glucose levels.
All animals were weighed daily before each dosing and treated daily for 14 consecutive days.
All the data was imported into an Excel file and presented as Mean±SEM. Graphpad Prism 7.0 software was used for data statistical analysis by One-way or Two-way ANOVA, with P<0.05 as the criterion of significant differences.
Data set [5] concerns uninephrectomied db/db mice. In words: Diabetic nephropathy pharmacodynamic model (uninephrectomied db/db mice).
Procedure: Housing temperature was maintained at 22-26° C. and humidity at 40%-60%. Mice were allowed to access food and water ad libitum. […] Buprenorphine was applied after surgery.
Two weeks after surgery, db/db mice were randomly assigned into 5 groups. Wild type mice were used for the control animals. […] Compounds were orally administrated once per day for 10 weeks.
At the 5th and 9th week after compound administration, mice were placed in metabolic cages for urine collection. Albumin level was measured for 24 hr albumin excretion calculation. At the 10th week after treatment, the animals were sacrificed for kidney dissection. The kidney was fixed in 10% neutral buffed formalin, then paraffin-embedded for histopathological analysis. Glomerulosclerosis was assessed by evaluating glomerular basement membrane, mesangial expansion, nodular sclerosis and glomerulosclerosis.
Graphpad 8.0 software was used for statistical analysis. The difference between the values were analyzed with one-way ANOVA. The difference between histopathological score was analyzed with Kruskal-Wallis nonparameter test.
The mark [6] stands for this setting: Day 8, 0.2 mg/kg oral QD x 7 days.
Where [7] appears, read: Day 8, 0.6 mg/kg oral QD x 7 days.

Consider `CO[C@@H](Cc1ccc(OCCc2nc(-c3ccccc3)oc2C)c2ccsc12)C(=O)O` [Aleglitazar, aleglitazar, reference compound], for which the “Daily average weight gain compared with the vehicle group” value in data set [1] (0.2 mg/kg (Aleglitazar: Day 4 and Day 5; Compound 2: throughout the study)) is “significantly higher”; in data set [1] (1 mg/kg (Aleglitazar: Day 6; Compound 2: Day 4 and 5; Compounds 4 and 10: Day 4 to Day 7)), “significantly higher”. The “Weight Gain compared with Day 0” value in data set [1] (Day 1, 0.2 mg/kg oral QD) is recorded as 0.48 ± 0.27 g; in data set [1] (Day 2, 0.2 mg/kg oral QD) it was 1.66 ± 0.39 g; in data set [1] (Day 2, 1 mg/kg oral QD), 1.64 ± 0.26 g; in data set [1] (Day 3, 0.2 mg/kg oral QD) it was 2.62 ± 0.42 g; in data set [1] (Day 3, 1 mg/kg oral QD) it was 2.61 ± 0.51 g; in data set [1] (Day 4, 0.2 mg/kg oral QD), 3.50 ± 0.42 g. The “Weight Gain compared with Day 0” value in data set [1] (Day 4, 1 mg/kg oral QD) was determined as 3.33 ± 0.54 g; in data set [1] (Day 5, 0.2 mg/kg oral QD), 3.92 ± 0.4 g; in data set [1] (Day 5, 1 mg/kg oral QD) it was 3.86 ± 0.49 g; in data set [1] (Day 6, 0.2 mg/kg oral QD) it was 4.81 ± 0.37 g; in data set [1] (Day 6, 1 mg/kg oral QD), 4.98 ± 0.52 g; in data set [1] (Day 7, 0.2 mg/kg oral QD) it was 5.39 ± 0.56 g. Moreover, the “Weight Gain compared with Day 0” value in data set [1] (Day 7, 1 mg/kg oral QD) was 5.34 ± 0.50 g. In addition, the “Serum TG” value is recorded as 4.24 ± 1.18 mmol/L in data set [2] (Day 0 (day before treatment), group later dosed 0.2 mg/kg oral QD x 7 days); 4.09 ± 2.17 mmol/L in data set [2] (Day 0 (day before treatment), group later dosed 0.6 mg/kg oral QD x 7 days); 2.86 ± 0.86 mmol/L in data set [2] (setting [6]); 1.47 ± 0.46 mmol/L in data set [2] (setting [7]). The figures for the “Serum NEFA” value in data set [2] (setting [6]) and in data set [2] (setting [7]) were 706.00 ± 190.15 µmol/L and 327.83 ± 90.73 µmol/L, respectively. The “Serum TG and NEFA levels compared with the vehicle group” value in data set [2] is given as “significantly reduce”. The “Total score of renal focal lesions (infract, tubular dilation, tubular obstruction, fibrosis, necrosis) compared with model group” value in data set [3] was “did not achieve statistically significant improvement”. Besides, the “Serum TG levels compared with the vehicle group” value in data set [4] (Aleglitazar 0.2 mg/kg) is reported as “significantly lower”. Further, in data set [4] (Day 10 to Day 15, Aleglitazar 0.2 mg/kg, Compound 2 0.05, 0.2, 1 mg/kg), the “Average daily body weights compared with the vehicle group” value was “significantly higher”. Moreover, the “Statistical difference (p) of the blood glucose level between OGTT treatment group and vehicle group” value in data set [4] (OGTT Day 14, 0 min) is listed as “p < 0.001”; in data set [4] (OGTT Day 14, 15 min), “p < 0.01”; in data set [4] (OGTT Day 14, 30 min) it was “p > 0.05”; in data set [4] (OGTT Day 14, 60 min), “p < 0.01”; in data set [4] (OGTT Day 14, 120 min), “p < 0.01”. Further, the “Statistical difference (p) of the blood glucose level between treatment group and vehicle group” value in data set [4] (random blood glucose, Day 0, 0.2 mpk) is recorded as “p > 0.05”; in data set [4] (random blood glucose, Day 7, 0.2 mpk) it was “p < 0.05”; in data set [4] (random blood glucose, Day 14, 0.2 mpk) it was “p < 0.01”.

Regarding `CO[C@@H](Cc1ccc(OCCc2nc(-c3ccccc3)oc2C)c2ccsc12)C(=O)O` (single isomer, unassigned) [Compound 2], in data set [2] (0.2 mg/kg, T-test, P<0.05), the “Serum NEFA compared with Aleglitazar” value is reported as “significantly reduce” and the “Serum TG compared with Aleglitazar” value is given as “significantly reduce”. Besides, in data set [2], the “Serum TG and NEFA levels compared with the vehicle group” value is “significantly reduce”. The “Total score of renal focal lesions (infract, tubular dilation, tubular obstruction, fibrosis, necrosis) compared with model group” value in data set [3] is “significantly improved”. Besides, the “24-hour urinary albumin compared with vehicle” value in data set [5] (5th and 9th weeks after compound administration, 0.1, 0.3, 1 mg/kg oral once per day) was “significantly decreased”. Besides, in data set [5] (all dosage levels (0.1, 0.3, 1 mg/kg), 10 weeks), the “Renal tubular injury (histopathology)” value is reported as “improved the tubular injury at some extend”. Further, the “Glomerulosclerosis histopathological score and glomerular volume” value in data set [5] (high dose (1 mg/kg), 10 weeks) is on record as “statistically significantly reduced”. Also, the “OGTT blood glucose compared with the vehicle group” value in data set [4] (0.05 mg/kg, all time points) is “did not reach statistical significance”. Besides, the “Serum TG levels compared with the vehicle group” value in data set [4] (Aleglitazar 0.2 mg/kg) is recorded as “significantly lower”. Also, the “Effect on lowering blood glucose compared with Aleglitazar” value in data set [4] (random blood glucose, Day 7 and Day 14) was “slightly weaker effect”. The “OGTT AUC0-120min compared with Aleglitazar” value in data set [4] (same dose level (0.2 mg/kg)) is “higher”.
